Source: patent US20220177511A1, “SERIES OF HALOGENATED TETRACYCLIC TRITERPENE DERIVATIVES AND THEIR PREPARATION AND APPLICATION” (SHANGHAI KING-X BIOTECH CO., LTD, priority 2019, published 2022)
Values after ≈ are worked out from the molar mass of the structure shown. Where two headings read alike, the source gives them in different places.

Assay: Solubility test in water and FaSSIF
Type: physicochemical
Details: 37° C., up to 24 hours
[1] = thermodynamic from solid, FaSSIF (pH 6.5), read-out: Solubility
[2] = thermodynamic from solid, Water, read-out: Solubility

SMILES | Solubility (FaSSIF (pH 6.5)) [µg/mL] | Solubility (Water) [µg/mL] | Solubility [1] [µg/mL] | Solubility [2] [µg/mL]
CC(C)(O)C1CCC(C)(C2C(O)CC3(C)C4CC(OC(=O)C5CCNCC5)C5C(C)(C)C(F)(F)CCC56CC46CCC23C)O1.Cl [Compound 2-2, 4-((((2aR,3R,4S,5aS,5bS,7S,7aR,11aR,12aS)-9,9-difluoro-4-hydroxy-3-((2S,5S)-5-(2-hydroxypropan-2-yl)-2-methyltetrahydrofuran-2-yl)-2a,5a,8,8-tetramethyltetradecahydro-1H,12H-cyclopenta[a]cyclopropa[e]phenanthren-7-yl)oxy)carbonyl)piperidin-1-ium Chloride] | 1660 | 880 |  | 
Br.CC(C)(O)C1CCC(C)(C2C(O)CC3(C)C4CC(OC(=O)COCCOCCOCCOCCOCCN)C5C(C)(C)C(F)(F)CCC56CC46CCC23C)O1 [Compound 2-10, 17-(((2aR,3R,4S,5aS,5bS,7S,7aR,11aR,12aS)-9,9-difluoro-4-hydroxy-3-((2S,5S)-5-(2-hydroxypropan-2-yl)-2-methyltetrahydrofuran-2-yl)-2a,5a,8,8-tetramethyltetradecahydro-1H,12H-cyclopenta[a]cyclopropa[e]phenanthren-7-yl)oxy)-17-oxo-3,6,9,12,15-pentaoxaheptadecan-1-aminium Bromide] | 4390 | 2280 |  | 
CC(C)(O)[C@@H]1CC[C@@](C)([C@H]2[C@@H](O)C[C@@]3(C)[C@@H]4C[C@H](OC(=O)COCCO)[C@H]5C(C)(C)C(F)(F)CC[C@@]56C[C@@]46CC[C@]23C)O1 [Compound 2-11, (2aR,3R,4S,5aS,5bS,7S,7aR,11aR,12aS)-9,9-difluoro-4-hydroxy-3-((2S,5S)-5-(2-hydroxypropan-2-yl)-2-methyltetrahydrofuran-2-yl)-2a,5a,8,8-tetramethyltetradecahydro-1H,12H-cyclopenta[a]cyclopropa[e]phenanthren-7-yl-2-(2-hydroxyethoxy)acetate] |  |  | 1050 (≈ 1710 µM) | 550 (≈ 898 µM)
CC(C)(O)[C@@H]1CC[C@@](C)([C@H]2[C@@H](O)C[C@@]3(C)[C@@H]4C[C@H](OC(=O)COCCOCCO)[C@H]5C(C)(C)C(F)(F)CC[C@@]56C[C@@]46CC[C@]23C)O1 [Compound 2-12, (2aR,3R,4S,5aS,5bS,7S,7aR,11aR,12aS)-9,9-difluoro-4-hydroxy-3-((2S,5S)-5-(2-hydroxypropan-2-yl)-2-methyltetrahydrofuran-2-yl)-2a,5a,8,8-tetramethyltetradecahydro-1H,12H-cyclopenta[a]cyclopropa[e]phenanthren-7-yl-2-(2-(2-hydroxyethoxy)ethoxy) Acetate] |  |  | 1110 | 680
CC(C)(O)[C@@H]1CC[C@@](C)([C@H]2[C@@H](O)C[C@@]3(C)[C@@H]4C[C@H](OC(=O)COCCOCCOCCO)[C@H]5C(C)(C)C(F)(F)CC[C@@]56C[C@@]46CC[C@]23C)O1 [Compound 2-13, (2aR,3R,4S,5aS,5bS,7S,7aR,11aR,12aS)-9,9-difluoro-4-hydroxy-3-((2S,5S)-5-(2-hydroxypropan-2-yl)-2-methyltetrahydrofuran-2-yl)-2a,5a,8,8-tetramethyltetradecahydro-1H,12H-cyclopenta[a]cyclopropa[e]phenanthren-7-yl-2-(2-(2-(2-hydroxyethoxy)ethoxy)ethoxy)acetate] |  |  | 1150 (≈ 1640 µM) | 850 (≈ 1210 µM)
CC(C)(O)[C@@H]1CC[C@@](C)([C@H]2[C@@H](O)C[C@@]3(C)[C@@H]4C[C@H](OC(=O)COCCOCCOCCOCCOCCO)[C@H]5C(C)(C)C(F)(F)CC[C@@]56C[C@@]46CC[C@]23C)O1 [Compound 2-14, (2aR,3R,4S,5aS,5bS,7S,7aR,11aR,12aS)-9,9-difluoro-4-hydroxy-3-((2S,5S)-5-(2-hydroxypropan-2-yl)-2-methyltetrahydrofuran-2-yl)-2a,5a,8,8-tetramethyltetradecahydro-1H,12H-cyclopenta[a]cyclopropa[e]phenanthren-7-yl-17-hydroxy-3,6,9,12,15-pentaoxaheptadecanoate] |  |  | 2310 (≈ 2930 µM) | 1230 (≈ 1560 µM)
CC(C)(O)[C@@H]1CC[C@@](C)([C@H]2[C@@H](O)C[C@@]3(C)[C@@H]4C[C@H](OC(=O)[C@@H](N)CC(=O)O)[C@H]5C(C)(C)C(F)(F)CC[C@@]56C[C@@]46CC[C@]23C)O1 [Compound 2-24, (S)-3-carboxy-1-(((2aR,3R,4S,5aS,5bS,7S,7aR,11aR,12aS)-9,9-difluoro-4-hydroxy-3-((2S,5S)-5-(2-hydroxypropan-2-yl)-2-methyltetrahydrofuran-2-yl)-2a,5a,8,8-tetramethyltetradecahydro-1H,12H-cyclopenta[a]cyclopropa[e]phenanthren-7-yl)oxy)-1-oxopropan-2-aminium 2,2,2-trifluoroacetate] |  |  | 5450 (≈ 8710 µM) | 1500 (≈ 2400 µM)

Second part, led by results:

Solubility (FaSSIF (pH 6.5)) [µg/mL] | Solubility (Water) [µg/mL] | SMILES | Solubility [1] [µg/mL] | Solubility [2] [µg/mL]
4020 | 2050 | CC(C)(O)[C@@H]1CC[C@@](C)([C@H]2[C@@H](O)C[C@@]3(C)[C@@H]4C[C@H](OC(=O)COCCOCCOCCN)[C@H]5C(C)(C)C(F)(F)CC[C@@]56C[C@@]46CC[C@]23C)O1.O=C(O)C(F)(F)F [Compound 2-8, 2-(2-(2-(2-(((2aR,3R,4S,5aS,5bS,7S,7aR,11aR,12aS)-9,9-difluoro-4-hydroxy-3-((2S,5S)-5-(2-hydroxypropan-2-yl)-2-methyltetrahydrofuran-2-yl)-2a,5a,8,8-tetramethyltetradecahydro-1H,12H-cyclopenta[a]cyclopropa[e]phenanthren-7-yl)oxy)-2-oxoethoxy)ethoxy)ethoxy)ethan-1-aminium Trifluoroacetate] |  | 
4520 | 2110 | CC(C)(O)C1CCC(C)(C2C(O)CC3(C)C4CC(OC(=O)CNCCNCCN)C5C(C)(C)C(F)(F)CCC56CC46CCC23C)O1.O=[N+]([O-])O [Compound 2-9, 2-((2-((2-(((2aR,3R,4S,5aS,5bS,7S,7aR,11aR,12aS)-9,9-difluoro-4-hydroxy-3-((2S,5S)-5-(2-hydroxypropan-2-yl)-2-methyltetrahydrofuran-2-yl)-2a,5a,8,8-tetramethyltetradecahydro-1H,12H-cyclopenta[a]cyclopropa[e]phenanthren-7-yl)oxy)-2-oxoethyl)amino)ethyl)amino)ethan-1-aminium Nitrate] |  | 
1850 | 600 | CC(C)C[C@H](N)C(=O)O[C@H]1C[C@@H]2[C@]3(CC[C@]4(C)[C@@H]([C@]5(C)CC[C@@H](C(C)(C)O)O5)[C@@H](O)C[C@@]24C)C[C@@]32CCC(F)(F)C(C)(C)[C@H]12.Cl [Compound 2-18, (S)-1-(((2aR,3R,4S,5aS,5bS,7S,7aR,11aR,12aS)-9,9-difluoro-4-hydroxy-3-((2S,5S)-5-(2-hydroxypropan-2-yl)-2-methyltetrahydrofuran-2-yl)-2a,5a,8,8-tetramethyltetradecahydro-1H,12H-cyclopenta[a]cyclopropa[e]phenanthren-7-yl)oxy)-4-methyl-1-oxopentan-2-aminium Chloride] |  | 
3500 | 900 | Br.CC(C)(O)[C@@H]1CC[C@@](C)([C@H]2[C@@H](O)C[C@@]3(C)[C@@H]4C[C@H](OC(=O)[C@@H](N)CC(N)=O)[C@H]5C(C)(C)C(F)(F)CC[C@@]56C[C@@]46CC[C@]23C)O1 [Compound 2-21, (S)-4-amino-1-(((2aR,3R,4S,5aS,5bS,7S,7aR,11aR,12aS)-9,9-difluoro-4-hydroxy-3-((2S,5S)-5-(2-hydroxypropan-2-yl)-2-methyltetrahydrofuran-2-yl)-2a,5a,8,8-tetramethyltetradecahydro-1H,12H-cyclopenta[a]cyclopropa[e]phenanthren-7-yl)oxy)-1,4-dioxobutan-2-aminium Bromide] |  | 
1250 | 700 | CC(C)(O)[C@@H]1CC[C@@](C)([C@H]2[C@@H](O)C[C@@]3(C)[C@@H]4C[C@H](OC(=O)[C@@H](N)Cc5c[nH]cn5)[C@H]5C(C)(C)C(F)(F)CC[C@@]56C[C@@]46CC[C@]23C)O1.O=S(=O)(O)O [Compound 2-22, (2aR,3R,4S,5aS,5bS,7S,7aR,11aR,12aS)-9,9-difluoro-4-hydroxy-3-((2S,5S)-5-(2-hydroxypropan-2-yl)-2-methyltetrahydrofuran-2-yl)-2a,5a,8,8-tetramethyltetradecahydro-1H,12H-cyclopenta[a]cyclopropa[e]phenanthren-7-yl-L-histidinate Sulfate] |  | 
6600 | 2300 | CC(C)(O)[C@@H]1CC[C@@](C)([C@H]2[C@@H](O)C[C@@]3(C)[C@@H]4C[C@H](OC(=O)[C@@H](N)CCCNC(=N)N)[C@H]5C(C)(C)C(F)(F)CC[C@@]56C[C@@]46CC[C@]23C)O1.Cl.Cl [Compound 2-23, 1-((S)-4-ammonio-5-(((2aR,3R,4S,5aS,5bS,7S,7aR,11aR,12aS)-9,9-difluoro-4-hydroxy-3-((2S,5S)-5-(2-hydroxypropan-2-yl)-2-methyltetrahydrofuran-2-yl)-2a,5a,8,8-tetramethyltetradecahydro-1H,12H-cyclopenta[a]cyclopropa[e]phenanthren-7-yl)oxy)-5-oxopentyl)guanidinium Chloride] |  | 
3350 | 1020 | CC(C)(O)[C@@H]1CC[C@@](C)([C@H]2[C@@H](O)C[C@@]3(C)[C@@H]4C[C@H](OC(=O)[C@@H](N)CS)[C@H]5C(C)(C)C(F)(F)CC[C@@]56C[C@@]46CC[C@]23C)O1.Cl [Compound 2-25, (R)-1-(((2aR,3R,4S,5aS,5bS,7S,7aR,11aR,12aS)-9,9-difluoro-4-hydroxy-3-((2S,5S)-5-(2-hydroxypropan-2-yl)-2-methyltetrahydrofuran-2-yl)-2a,5a,8,8-tetramethyltetradecahydro-1H,12H-cyclopenta[a]cyclopropa[e]phenanthren-7-yl)oxy)-3-mercapto-1-oxopropan-2-aminium Chloride] |  | 
